Source: patent US7772230B2, “Chroman compound, processes for its preparation, and its pharmaceutical use” (China Pharmaceutical University, priority 2006, dated 2010)
pIC50: −log10 of the molar value.

Key:
[1] = biological target: T1, rapidly delayed rectifier potassium channel current (IKr) (Cavia porcellus, UniProt O08703); assay: whole cell patch clamp on isolated Guinea pig myocardial cells, IKr; type: cell-based; settings: Guinea pig ventricular myocytes, current recorded 10 min after administration, 25-30° C.
T1 construct: the Guinea pig myocardial cells are separated with enzymolysis; endogenous in cells; host or cells: freshly isolated guinea pig ventricular myocytes
T1 sequence (O08703 1-1294): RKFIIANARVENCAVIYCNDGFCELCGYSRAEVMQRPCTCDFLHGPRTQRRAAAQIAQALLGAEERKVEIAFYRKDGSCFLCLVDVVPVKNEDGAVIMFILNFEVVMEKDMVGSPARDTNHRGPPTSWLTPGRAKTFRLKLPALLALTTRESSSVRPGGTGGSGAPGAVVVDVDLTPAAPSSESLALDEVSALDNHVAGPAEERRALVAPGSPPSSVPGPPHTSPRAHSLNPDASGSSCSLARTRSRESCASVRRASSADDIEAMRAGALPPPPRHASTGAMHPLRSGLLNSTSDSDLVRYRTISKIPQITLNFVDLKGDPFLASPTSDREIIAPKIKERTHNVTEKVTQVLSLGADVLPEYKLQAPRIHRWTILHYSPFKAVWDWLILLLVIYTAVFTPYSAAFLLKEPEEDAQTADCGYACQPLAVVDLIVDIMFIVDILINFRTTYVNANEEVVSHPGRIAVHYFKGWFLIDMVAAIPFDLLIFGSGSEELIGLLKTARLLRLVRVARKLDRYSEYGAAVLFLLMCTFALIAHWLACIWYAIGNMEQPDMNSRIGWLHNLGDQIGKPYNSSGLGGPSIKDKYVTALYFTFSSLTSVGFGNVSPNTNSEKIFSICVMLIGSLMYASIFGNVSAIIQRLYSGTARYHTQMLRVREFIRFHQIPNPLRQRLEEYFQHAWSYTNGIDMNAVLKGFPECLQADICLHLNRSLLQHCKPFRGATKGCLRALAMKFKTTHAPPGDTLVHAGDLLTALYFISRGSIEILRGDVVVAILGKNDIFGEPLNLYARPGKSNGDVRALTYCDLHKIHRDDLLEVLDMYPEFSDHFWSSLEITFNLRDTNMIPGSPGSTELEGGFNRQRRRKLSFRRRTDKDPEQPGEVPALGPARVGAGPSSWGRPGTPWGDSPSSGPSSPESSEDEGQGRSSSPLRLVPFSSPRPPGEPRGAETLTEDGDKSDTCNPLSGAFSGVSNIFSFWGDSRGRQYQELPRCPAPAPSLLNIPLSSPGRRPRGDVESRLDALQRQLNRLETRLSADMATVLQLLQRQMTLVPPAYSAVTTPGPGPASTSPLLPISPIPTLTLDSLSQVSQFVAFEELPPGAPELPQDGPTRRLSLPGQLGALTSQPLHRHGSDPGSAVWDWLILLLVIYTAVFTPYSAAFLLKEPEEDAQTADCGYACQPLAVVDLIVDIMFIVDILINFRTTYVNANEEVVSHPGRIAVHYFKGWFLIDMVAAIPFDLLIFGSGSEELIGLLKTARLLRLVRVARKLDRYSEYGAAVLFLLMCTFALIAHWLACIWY
Method: (§1) Experimental title: using vitro pachynsis myocardial cells of Guinea pig, the activity is determined by the whole cell membrane Patch clamp technology.
(§2) experimental mechanism: the Guinea pig myocardial cells are separated with enzymolysis, and the rapid activation component and the slowly activation component of the delayed commutating current in the cardiac muscle cells are recorded by whole cell membrane Patch clamp. Each compound is added to the perfuse liquid for measuring current after dissolved at least 10 min. The collected data is analyzed in pulse-fit, the IC50 value for IKr and IKs of each compound is calculated.
(§3) animals: Guinea pigs, male, weight 300-400 g.
(§4) solution: calcium free Tyrode's solution
(§5) pole inner solution (mmol/L): KCl 140, MgCl2 1.0, K2-ATP 4.0, EGTA 10, HEPES 5.0, pH=7.2
(§6) Experimental apparatus: Patch clamp magnifier (EPC-10, Germany), inverted microscope (TE-2000U, Nikon, Japan), microelectrode puller (PIP5, Germany), micro-manipulator (PCS-5000, Burleigh, USA).
(§7) Then, the hearts are taken off, their ventricle are cut to smash and incubated in fresh enzyme solution at 37° C., the solution is gently stirred for 5-10 min, pouring off the supernatant fluid, diluted with Tyrode's solution containing CaCl2 1 mmol/L, that is for the first cell stored liquor; with the same operation to obtain the second and the third cell storages. […] The cells are laid for 2 h before use.
(§8) the cell liquor is put into the cell pool, after the cells adhering to the wall, they are perfused with outer liquor of the cells at the rate of 2 ml/min, cells that having calcium resistance and clear transverse striations are to be selected, the poles are moved to the cell surface by tridimensional manipulator. The high resistance block are formed between the pole top and the cell surface by under pressure, and more over using reduced pressure to broking cell membrane, the pole inner liquor can be connected to the cell inner liquor so as to form the whole cell state. After the compensation to the capacitance and series impedance compensation the voltage tongs are recorded. The signal is led by Ag/AgCl pole and magnified by the Patch clamp magnifier, the computer dispenses presetting stimulate pulse by procedure and add to cells, and the electrical signal generated from cells is translated by transducer, and stored in computer. All of the stimulate signal control, electric current, data sampling and analyses are carried out by pulse V8.60. Azimilide is used as positive drugs in the research. Each test compound is dissolved in anhydrous ethanol, diluted to the same concentration by water, and added to outer cell liquor, the top concentration of ethanol is 0.1%.
(§9) Stimulate parameter: the record of IKr and IKS: the back value of the either current is recorded. Using extra-cellular fluid containing 0.1 mmol/L CdCl2 for perfusion, sustaining the voltage at −50 mV, depolarized to 60 mV, keeping for 500 ms, and sustaining the voltage at −50 mV, keeping for 1000 ms, recording IKr; and then binding the voltage at −50 mV for 1000 ms, recording IKs.

[2] = biological target: T2, slowly delayed rectifier potassium channel current (IKs) (Cavia porcellus, UniProt O70344); assay: whole cell patch clamp on isolated Guinea pig myocardial cells, IKs; type: cell-based; settings: Guinea pig ventricular myocytes, current recorded 10 min after administration, 25-30° C.
T2 construct: the Guinea pig myocardial cells are separated with enzymolysis; endogenous in cells; host or cells: freshly isolated guinea pig ventricular myocytes
T2 sequence (O70344 1-671): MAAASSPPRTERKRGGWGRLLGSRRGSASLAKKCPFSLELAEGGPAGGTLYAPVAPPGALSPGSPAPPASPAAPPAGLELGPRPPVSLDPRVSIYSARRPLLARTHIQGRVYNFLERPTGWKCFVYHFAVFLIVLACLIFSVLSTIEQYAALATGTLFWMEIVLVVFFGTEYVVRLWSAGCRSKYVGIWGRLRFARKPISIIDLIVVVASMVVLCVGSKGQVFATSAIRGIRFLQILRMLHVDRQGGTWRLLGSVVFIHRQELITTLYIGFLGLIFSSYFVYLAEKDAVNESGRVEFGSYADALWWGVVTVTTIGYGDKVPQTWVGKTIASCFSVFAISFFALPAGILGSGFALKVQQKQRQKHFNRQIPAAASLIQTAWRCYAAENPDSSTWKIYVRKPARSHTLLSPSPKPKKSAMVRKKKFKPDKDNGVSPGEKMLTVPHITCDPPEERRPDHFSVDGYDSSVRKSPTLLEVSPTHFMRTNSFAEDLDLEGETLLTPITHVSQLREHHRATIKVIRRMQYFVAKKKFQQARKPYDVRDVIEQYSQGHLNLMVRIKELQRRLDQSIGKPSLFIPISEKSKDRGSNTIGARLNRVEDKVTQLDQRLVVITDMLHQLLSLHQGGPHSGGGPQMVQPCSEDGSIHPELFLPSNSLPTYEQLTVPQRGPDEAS
T2 sequence (P41686 1-245 partner): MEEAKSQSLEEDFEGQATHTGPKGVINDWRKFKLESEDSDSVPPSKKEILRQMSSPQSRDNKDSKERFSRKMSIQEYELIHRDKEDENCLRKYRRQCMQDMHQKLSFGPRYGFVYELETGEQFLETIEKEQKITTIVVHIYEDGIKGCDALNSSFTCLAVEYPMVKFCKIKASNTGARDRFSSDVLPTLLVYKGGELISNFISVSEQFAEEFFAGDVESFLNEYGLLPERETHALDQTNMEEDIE
Method: as §1, §2, §3, §4, §5, §6, §7, §8, §9

Row | Structure (SMILES) | pIC50 [1] | melting point [°C] | pIC50 [2]
1 | CN1CCN(CCCCN2C(=O)CN(/N=C3\CCOc4ccc(C(N)=O)cc43)C2=O)CC1.O=C(O)/C=C/C(=O)O [Ia example 4, 1-[4-(2,3-dihydro-6-carbamoyl)benzopyran]imino-3-[4-(methyl-1-piperazine)butyl]-2,4-imidazole dione difumarate] | 6.35 | 192 to 194 | 6.48
2 | CCCOc1ccc2c(c1)/C(=N/N1CC(=O)N(CCCCN3CCN(C)CC3)C1=O)CCO2.O=C(O)/C=C/C(=O)O [Ib example 3, 1-[4-(2,3-dihydro-6-propoxy-)benzopyran]imino-3-[4-(methyl-1-piperazine)butyl]-2,4-imidazole dione difumarate] | 4.93 | 218 to 220 | 5.89
